This is an account of results in PMC11428291, “Peptide and Protein Cysteine Modification Enabled by Hydrosulfuration of Ynamide” (ACS Central Science, 2024).

SMILES strings stand for the structures.

Data set [1] can be described thus: Water solubility of ynamides (qualitative). The format is physicochemical. Conditions: qualitative statement. On the procedure:
To this end, N-methylynetoluenesulfonamide (MYTsA, 2a), the first-generation ynamide coupling reagent for peptide synthesis,[39] was tested in our model reaction as a reference. […] Further optimization was performed to implement this chemistry under biocompatible conditions, such as aqueous media, near-neutral pH (6–8), and physiological temperature. In parallel, the poor water-solubility of 2a led to a sluggish reaction in an MeCN/phosphate buffer mixture (pH 8, 3:7), giving 3aa in 80% yield over 24 h. Enhancing the solubility by replacing the methyl group of R^2 with a 2-hydroxyethyl group (2b) led to a more efficient reaction, with an 89% yield of 3ab. […] Substituting the p-toluenesulfonyl (Ts) group of 2a with a trifluoromethylsulfonyl (triflyl, Tf, 2e) group enhanced both the solubility in water and the reaction efficiency due to its stronger electron-withdrawing ability and increased hydrophilicity. This modification facilitated the reaction to completion within 20 min in phosphate buffer with minimal MeCN (5%), yielding the product (3ae) as a single Z-isomer in 95% yield, confirmed by NMR (Z:E > 99:1; see zoom-in ^1H NMR spectra in Figure 2b and details in SI). […] This underscores the versatility of ynamide functionalization via R^2 group modification, promising broad applicability in synthesizing diverse conjugates. […]

Data set [2] is described as follows: Reaction rate study: hydrosulfuration of glutathione (GSH) to ynamide. The settings on record: pseudo-first order, ynamide 0.25 mM, GSH 2.5, 5 and 10 mM, 5% MeCN, pH 8.0, 0.2 M PBS, 37 °C, UV-Visible absorbance at 244 nm, triplicate. On the procedure: In line with our proposal, the conjugation of the optimal ynamide (2e) and peptide (1a) was sensitive to pH and was sluggish under neutral conditions (pH 6–7.5, Figure S14). […] To further dissect the reaction mechanism, the reaction was carried out in the presence of different types of radical scavengers; no negative effect on the reaction efficacy was observed. In addition, the thiyl radical chemistry of ynamide was examined in aqueous medium, but no reaction was detected (see the SI for details, Schemes S15–S16).
9) Reaction Rate study of the Peptide Conjugates
HO N N OH PBS, pH = 8.0, MeCN, 37 °CHONN OH
Figure S64.Reaction Rate study of the Peptide Conjugates
The reaction between Ynamide (2e) and glutathione (GSH) was measured under pseudo- first order conditions with 10, 20 and 40 equivalents of GSH by real-time monitor of conjugate reactio n using UV-Visible absorbance at 244 nm (max absorbance wavelength for 3me). Solutions were prepared in MeCN (5%), pH 8.0, 0.2 M PBS with Ynamide (0.25 mM) and GSH (2.5 mM, 5 mM and 10 mM). Data was recorded for 2-5 min and performed in triplicate at 37 ℃. The averages of the observed rates (kobs), determined by nonlinear regression analysis of the data points were plotted against the concentration of GSH and the bimolecular rate constant k2, […]
8. Trastuzumab R eduction […]

A short description of data set [3]: Stability of peptide conjugate in the presence of external thiol (2-mercaptoethanol). Type of data set: physicochemical. The settings on record: conjugate 1 mM, pH 8.0 (Figure S58). The source says:
(§1) The stability of the conjugated products is of the utmost importance for developing a powerful peptide and protein modification strategy.[6] […] Moreover, the cleavage of 3ae in the presence of external thiol to regenerate the unmodified 1a, which occurred in other methods,[16b],[33a] was not detected in our hands (using 2-mercaptoethanol, Figure S58). In contrast, the iodoacetamide (IAM) peptide conjugate decomposed under the aforementioned conditions (Figures S61–S63).
7. Stability Study and Reaction Rate study of the Peptide Conjugates
1) Stability study of the peptide conjugate 3ae
Figure S56.Stability study of the peptide conjugate 3ae
2) Stability of 3ae (1 mM) in buffers at pH 2.0, pH 8.0, pH 10.0, pH 13.0 at 37 °C for
Figure S57.Stability of 3ae ( 1mM) in buffers at pH 2.0, pH 8.0,pH 10.0,pH 13.0
3) Stability of 3ae (1 mM) in the presence of external thiol ( 2- mercaptoethanol)，pH […]
(§2) Figure S58.Stability of 3ae ( 1mM) in the presence of external thiol
(§3) 4) Stability of 3ae (10 μM) when treated with large excess ((10mM H2O2 in buffer) of
Figure S59.Stability of 3ae ( 10μM) when tr eated with large excess of H 2O2 (at pH 4,

The format of data set [4] is physicochemical. The settings on record: conjugate 10 μM, 10 mM H2O2 in buffer, pH 4, 8 and 10, 37 °C, 24 h (Figure S59).
Excerpt: as §1, §2, §3
Figure S59.Stability of 3ae ( 10μM) when tr eated with large excess of H 2O2 (at pH 4, […]
7) Stability of iodoacetamide labelling product (10 μM) when treated with large
excess ((10mM H2O2 in buffer)of H 2O2 (at pH 2 and 13 at 37 °C) for 24 h
Figure S62.Stability of iodoacetamide labelling product (10 μM) when treated with
large excess of H2O2 (at pH 2 and 13at 37 °C)
8) Stability of iodoacetamide labelling product (10 μM) when treated with bovine
Figure S63.Stability of iodoacetamide labelling product (10 μM) when treated with […]

Turning to `C#CN(CCO)S(=O)(=O)C(F)(F)F` [2e], the “Solubility in water relative to 2a” value in data set [1] (compared with 2a) was “enhanced”. Moreover, in data set [2], the “Apparent second-order rate constant for the thiol conjugation (k2, app.)” value was 0.2399 ± 0.002 M^–1 s^–1.

As to `CCOC(=O)[C@H](CS/C=C\N(CCO)S(=O)(=O)C(F)(F)F)NC(=O)[C@H](C)NC(=O)OC(C)(C)C` [3ae], the “Cleavage in the presence of external thiol to regenerate the unmodified 1a” value in data set [3] is listed as “not detected”. In addition, the “β-syn elimination when treated with a large excess of H2O2” value in data set [4] was “did not undergo β-syn elimination”.

`C#CN(C)S(=O)(=O)c1ccc(C)cc1` [2a, N-methylynetoluenesulfonamide]: the Water-solubility entry in data set [1] is “poor”.
